Source: the supplement of paper PMC11061612

Columns and labels:
Assay in all cases: combination Emax (second highest fraction inhibited in the dose matrix, 72 h); higher = more inhibition; extreme values may be limits of the assay
NY (Osteosarcoma) = tested on: NY (Osteosarcoma)
Procedure, shortened: (§1)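 Cell lines in DMEM/F12 or RPMI with 10% FBS were plated in 1536-well plates, held 24 hours at 37°C, 5% CO2, then given two-drug dose matrices for 72 hours (DMSO typically 0.2%). Viability was read by CellTiter-Glo 2.0 luminescence and scaled as inhibition from 0 (vehicle wells) to 1 (blank wells). Combination Emax is the second-highest inhibition in the matrix; Bliss excess is observed combination effect minus expected EA + EB − EA·EB, EA and EB being single-agent effects.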

Hs-445 (Non-Cancerous) = tested on: Hs-445 (Non-Cancerous)
Procedure, shortened: as §1

[1] = tested on: CAL-29 (Bladder Carcinoma)
Procedure, shortened: as §1

8-MG-BA (Glioblastoma) = tested on: 8-MG-BA (Glioblastoma)
Procedure, shortened: as §1

[2] = tested on: COLO-824 (Breast Carcinoma)
Procedure, shortened: as §1

[3] = tested on: PANC-10-05 (Pancreatic Carcinoma)
Procedure, shortened: as §1

[4] = tested on: SK-MG-1 (Low Grade Glioma)
Procedure, shortened: as §1

[5] = tested on: A3-KAW (B-Cell Non-Hodgkin's Lymphoma)
Procedure, shortened: as §1

[6] = tested on: CCK-81 (Colorectal Carcinoma)
Procedure, shortened: as §1

[7] = tested on: NCI-H1581 (Non-Small Cell Lung Carcinoma)
Procedure, shortened: as §1

IGR-37 (Melanoma) = tested on: IGR-37 (Melanoma)
Procedure, shortened: as §1

NCI-H2591 (Mesothelioma) = tested on: NCI-H2591 (Mesothelioma)
Procedure, shortened: as §1

[8] = tested on: MDST8 (Colorectal Carcinoma)
Procedure, shortened: as §1

A498 (Kidney Carcinoma) = tested on: A498 (Kidney Carcinoma)
Procedure, shortened: as §1

[9] = tested on: TT (Thyroid Gland Carcinoma)
Procedure, shortened: as §1

[10] = tested on: JSC-1 (B-Cell Non-Hodgkin's Lymphoma)
Procedure, shortened: as §1

[11] = tested on: VCaP (Prostate Carcinoma)
Procedure, shortened: as §1

GI-ME-N (Neuroblastoma) = tested on: GI-ME-N (Neuroblastoma)
Procedure, shortened: as §1

[12] = tested on: NCI-H1666 (Lung Adenocarcinoma)
Procedure, shortened: as §1

ARH-77 (Non-Cancerous) = tested on: ARH-77 (Non-Cancerous)
Procedure, shortened: as §1

Row | Compound | combination Emax (NY (Osteosarcoma)) | combination Emax (Hs-445 (Non-Cancerous)) | combination Emax [1] | combination Emax (8-MG-BA (Glioblastoma)) | combination Emax [2] | combination Emax [3] | combination Emax [4] | combination Emax [5] | combination Emax [6] | combination Emax [7] | combination Emax (IGR-37 (Melanoma)) | combination Emax (NCI-H2591 (Mesothelioma)) | combination Emax [8] | combination Emax (A498 (Kidney Carcinoma)) | combination Emax [9] | combination Emax [10] | combination Emax [11] | combination Emax (GI-ME-N (Neuroblastoma)) | combination Emax [12] | combination Emax (ARH-77 (Non-Cancerous))
1 | CS(=O)(=O)CCNCc1ccc(-c2ccc3ncnc(Nc4ccc(OCc5cccc(F)c5)c(Cl)c4)c3c2)o1 [Lapatinib] + C[C@@H](Oc1cc(-c2cnn(C3CCNCC3)c2)cnc1N)c1c(Cl)ccc(F)c1Cl [Crizotinib] (first compound max 10 µM, 7x7, partner max 10 µM) | 0.341 | 0.783 | 0.952 | 0.998 | 0.94 | 0.675 | 0.9 | 0.968 | 0.975 | 0.678 | 0.906 | 0.572 | 0.738 | 0.926 | 0.409 | 0.925 | 0.465 | 0.392 | 0.833 | 0.942
2 | CC(=O)c1c(C)c2cnc(Nc3ccc(N4CCNCC4)cn3)nc2n(C2CCCC2)c1=O [Palbociclib] + CC1(C)CCC(CN2CCN(c3ccc(C(=O)NS(=O)(=O)c4ccc(NCC5CCOCC5)c([N+](=O)[O-])c4)c(Oc4cnc5[nH]ccc5c4)c3)CC2)=C(c2ccc(Cl)cc2)C1 [Venetoclax] (first compound max 10 µM, 7x7, partner max 1 µM) | 0.0868 | 0.746 | 0.0999 | 0.366 | 0.844 | 0.275 | 0.282 | 0.826 | 0.106 | 0.291 | 0.215 | 0.237 | 0.238 | 0.318 | 0.295 | 0.506 | 0.164 | 0.196 | 0.177 | 0.725
3 | CC(=O)c1c(C)c2cnc(Nc3ccc(N4CCNCC4)cn3)nc2n(C2CCCC2)c1=O [Palbociclib] + Cc1c2c(nn1C)CSCc1cc(n(C)n1)CSc1cc(c3ccccc3c1)OCCCc1c(C(=O)O)n(C)c3c-2c(Cl)ccc13 [AZD5991] (first compound max 10 µM, 7x7, partner max 1 µM) | 0.534 | 0.337 | 0.175 | 0.63 | 0.708 | 0.329 | 0.3 | 1 | 0.941 | 0.951 | 0.325 | 0.279 | 0.223 | 0.406 | 0.419 | 1 | 0.855 | 0.332 | 0.236 | 0.556
4 | CC(=O)c1c(C)c2cnc(Nc3ccc(N4CCNCC4)cn3)nc2n(C2CCCC2)c1=O [Palbociclib] + Cn1cnc2c(F)c(Nc3ccc(Br)cc3Cl)c(C(=O)NOCCO)cc21 [Selumetinib] (first compound max 10 µM, 7x7, partner max 10 µM) | 0.194 | 0.262 | 0.301 | 0.321 | 0.345 | 0.521 | 0.344 | 0.869 | 0.477 | 0.536 | 0.872 | 0.288 | 0.671 | 0.372 | 0.349 | 0.633 | 0.159 | 0.245 | 0.49 | 0.61
5 | COc1cccc(OCCCN)c1-c1cc(Nc2cnc(C#N)cn2)n[nH]1 [Prexasertib] + C=CCn1c(=O)c2cnc(Nc3ccc(N4CCN(C)CC4)cc3)nc2n1-c1cccc(C(C)(C)O)n1 [AZD1775] (first compound max 1 µM, partner max 1 µM) | 0.663 | 0.947 | 0.876 | 0.977 | 0.861 | 0.595 | 0.908 | 1 | 0.945 | 0.75 | 0.879 | 0.472 | 0.954 | 0.598 | 0.759 | 0.998 | 0.774 | 0.513 | 0.431 | 0.996
6 | COc1cccc(OCCCN)c1-c1cc(Nc2cnc(C#N)cn2)n[nH]1 [Prexasertib] + CCc1c2c(nc3ccc(O)cc13)-c1cc3c(c(=O)n1C2)COC(=O)[C@]3(O)CC [SN-38] (first compound max 1 µM, 7x7, partner max 0.3 µM) | 0.935 | 1 | 0.98 | 0.989 | 1 | 0.829 | 0.982 | 1 | 0.835 | 0.897 | 0.942 | 0.791 | 0.94 | 0.733 | 0.916 | 0.987 | 0.748 | 0.529 | 0.643 | 1
7 | COc1cccc(OCCCN)c1-c1cc(Nc2cnc(C#N)cn2)n[nH]1 [Prexasertib] + CN(C)CCCOc1ccc(-c2ccc3ncc4c(c3c2)n(C2CCOCC2)c(=O)n4C)cn1 [AZD0156] (first compound max 1 µM, 7x7, partner max 1 µM) | 0.62 | 0.97 | 0.836 | 0.934 | 0.785 | 0.4 | 0.843 | 1 | 0.927 | 0.284 | 0.912 | 0.305 | 0.957 | 0.725 | 0.676 | 1 | 0.741 | 0.529 | 0.35 | 1
8 | COc1cccc(OCCCN)c1-c1cc(Nc2cnc(C#N)cn2)n[nH]1 [Prexasertib] + C[C@@H]1COCCN1C2=NC(=NC(=C2)C3(CC3)[S@](=N)(=O)C)C4=C5C=CNC5=NC=C4 [AZD6738] (first compound max 1 µM, 7x7, partner max 10 µM) | 0.637 | 0.951 | 0.839 | 0.926 | 0.796 | 0.46 | 0.802 | 1 | 0.929 | 0.566 | 0.896 | 0.519 | 0.943 | 0.692 | 0.662 | 0.995 | 0.718 | 0.563 | 0.463 | 1
9 | COc1cccc(OCCCN)c1-c1cc(Nc2cnc(C#N)cn2)n[nH]1 [Prexasertib] + Cc1cc2ncnn2cc1Nc1ncc2c(n1)n(C1CCOCC1)c(=O)n2C [AZD7648] (first compound max 1 µM, 7x7, partner max 10 µM) | 0.674 | 0.954 | 0.79 | 0.951 | 0.783 | 0.522 | 0.826 | 1 | 0.903 | 0.418 | 0.923 | 0.415 | 0.943 | 0.642 | 0.611 | 1 | 0.729 | 0.563 | 0.334 | 0.994
10 | COc1cccc(OCCCN)c1-c1cc(Nc2cnc(C#N)cn2)n[nH]1 [Prexasertib] + O=C(c1cc(Cc2n[nH]c(=O)c3ccccc23)ccc1F)N1CCN(C(=O)C2CC2)CC1 [Olaparib] (first compound max 1 µM, 7x7, partner max 10 µM) | 0.652 | 0.949 | 0.714 | 0.969 | 0.77 | 0.31 | 0.904 | 1 | 0.841 | 0.563 | 0.961 | 0.21 | 0.937 | 0.591 | 0.59 | 0.996 | 0.797 | 0.452 | 0.26 | 0.969
11 | COc1cc2c(cc1OCCCCCOc1cc3c(cc1OC)C(=O)N1C=C(C)C[C@H]1C=N3)N=C[C@@H]1CC(C)=CN1C2=O [SG3199] + O=C(c1cc(Cc2n[nH]c(=O)c3ccccc23)ccc1F)N1CCN(C(=O)C2CC2)CC1 [Olaparib] (first compound max 0.001 µM, 7x7, partner max 10 µM) | 0.0994 | 0.086 | 0.0858 | 0.267 | 0.147 | 0.116 | 0.168 | 0.595 | 0.184 | 0.136 | 0.0632 | 0.118 | 0.138 | 0.173 | 0.187 | 0.116 | 0.0785 | 0.161 | 0.0849 | 0.221
12 | CCc1c2c(nc3ccc(O)cc13)-c1cc3c(c(=O)n1C2)COC(=O)[C@]3(O)CC [SN-38] + CN(C)CCCOc1ccc(-c2ccc3ncc4c(c3c2)n(C2CCOCC2)c(=O)n4C)cn1 [AZD0156] (first compound max 0.3 µM, 7x7, partner max 1 µM) | 0.855 | 0.993 | 0.928 | 0.975 | 0.509 | 0.73 | 0.833 | 1 | 0.673 | 0.785 | 0.826 | 0.65 | 0.802 | 0.5 | 0.827 | 0.983 | 0.391 | 0.345 | 0.626 | 0.992
13 | C[C@@H](c1ccc2nccn2c1)n1nnc2ncc(-c3cnn(C)c3)nc21 [Savolitinib] + CC1(C)CCC(CN2CCN(c3ccc(C(=O)NS(=O)(=O)c4ccc(NCC5CCOCC5)c([N+](=O)[O-])c4)c(Oc4cnc5[nH]ccc5c4)c3)CC2)=C(c2ccc(Cl)cc2)C1 [Venetoclax] (first compound max 1 µM, 7x7, partner max 1 µM) | 0.246 | 0.292 | 0.0725 | 0.12 | 0.61 | 0.117 | 0.11 | 0.188 | 0.1 | 0.135 | 0.3 | 0.15 | 0.176 | 0.172 | 0.173 | 0.115 | 0.115 | 0.17 | 0.152 | 0.251
